Calls of active or inactive are those of the source. The calls are words filed in the database; no cut-off is given here.
How the values were obtained:
Huh-7 [1] = assay: Induction of cell cycle arrest in human Huh-7 cells assessed as accumulation at S phase at 80 nM treated for 24 hrs by PI staining based flow cytometry (reference value: 23.33 %); assay type: functional
SK-HEP1 [2] = assay: Induction of apoptosis in human SK-Hep1 cells assessed as necrotic cells at 10 nM incubated for 24 hrs by annexin V-FITC/PI staining flow cytometry (reference value: 0.73 %); assay type: functional
Huh-7 [3] = assay: Induction of apoptosis in human Huh-7 cells assessed as chromatin agglutination incubated for 24 hrs by Giemsa staining based microscopy; assay type: functional, cell-based; conditions: dose 12-60 nM, DDE = dose-dependent effect
[4] = target: T1, DNA topoisomerase 1 (Homo sapiens) (UniProt P11387); assay: Inhibition of Top1 (unknown origin) assessed as inhibition of relaxation of supercoiled pBR322 plasmid DNA at 50 uM incubated for 25 mins by ethidium bromide staining based agarose gel electrophoresis analysis relative to control
T1 sequence (whole entry): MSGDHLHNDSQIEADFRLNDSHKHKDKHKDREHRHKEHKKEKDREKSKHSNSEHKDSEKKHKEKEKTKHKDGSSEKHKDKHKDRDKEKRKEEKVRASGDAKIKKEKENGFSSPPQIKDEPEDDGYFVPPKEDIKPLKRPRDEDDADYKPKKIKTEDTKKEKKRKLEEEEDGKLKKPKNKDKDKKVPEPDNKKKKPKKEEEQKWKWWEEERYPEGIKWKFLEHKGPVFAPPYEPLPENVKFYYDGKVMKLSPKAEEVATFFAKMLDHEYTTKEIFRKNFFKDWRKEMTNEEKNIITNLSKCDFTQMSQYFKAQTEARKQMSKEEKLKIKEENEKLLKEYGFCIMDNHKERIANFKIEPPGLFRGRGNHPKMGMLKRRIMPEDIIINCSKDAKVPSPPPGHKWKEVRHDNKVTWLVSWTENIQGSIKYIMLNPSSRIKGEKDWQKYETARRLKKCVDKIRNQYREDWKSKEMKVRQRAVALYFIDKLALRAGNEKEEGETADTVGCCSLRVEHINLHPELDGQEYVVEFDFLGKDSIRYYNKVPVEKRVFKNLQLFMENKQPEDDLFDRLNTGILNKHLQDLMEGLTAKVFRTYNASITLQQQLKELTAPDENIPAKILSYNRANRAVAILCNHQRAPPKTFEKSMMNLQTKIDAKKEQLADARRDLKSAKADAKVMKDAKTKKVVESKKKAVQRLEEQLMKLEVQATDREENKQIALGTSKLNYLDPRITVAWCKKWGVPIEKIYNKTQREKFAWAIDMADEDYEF

SK-HEP1 [5] = assay: Antiproliferative activity against human SK-Hep1 cells assessed as inhibition of cell viability treated for 24 to 72 hrs by MTT assay; assay type: functional, cell-based; conditions: time 24-72 hrs, DDE = dose-dependent effect
HSC-T6 = assay: Antiproliferative activity against TGF-beta-1-stimulated rat HSC-T6 cells assessed as suppression of cell proliferation at 0.70 to 60 uM preincubated with TGFbeta-1 for 1 day followed by compound addition and measured after 48 hrs; assay type: functional, cell-based; conditions: dose 0.7-60 µM
Huh-7 [6] = assay: Induction of apoptosis in human Huh-7 cells assessed as viable cells at 80 nM incubated for 24 hrs by annexin V-FITC/PI staining flow cytometry (reference value: 97.3 %); assay type: functional; conditions: read-out: Activity
SK-HEP1 [7] = assay: Induction of apoptosis in human SK-Hep1 cells assessed as necrotic cells at 40 nM incubated for 24 hrs by annexin V-FITC/PI staining flow cytometry (reference value: 0.73 %); assay type: functional
[8] = Induction of apoptosis in rat HSC-T6 cells assessed as early apoptotic cells at 10 nM pretreated with TGFbeta-1 for 1 day followed by compound addition and measured after 24 hrs by flow cytometry (reference value: 0.17 %); assay type: functional
Huh-7 [9] = assay: Inhibition of cell migration in human Huh-7 cells incubated for 24 hrs by scratch wound healing assay; assay type: functional, cell-based; conditions: dose 3-18 nM, DDE = dose-dependent effect
SK-HEP1 [10] = assay: Induction of mitochondrial membrane potential changes in human SK-Hep1 cells assessed as decrease in TMRE positive cells incubated for 24 hrs by TMRE staining based flow cytometry; assay type: functional, cell-based; conditions: dose 10-80 nM, DDE = dose-dependent effect
SMMC-7721 = assay: Antiproliferative activity against human SMMC-7721 cells treated for 72 hrs by MTT assay; assay type: functional, cell-based; conditions: SMMC-7721, 72 h
[11] = Antiproliferative activity against human L02 cells treated for 72 hrs by MTT assay; assay type: toxicity, cell-based
Huh-7 [12] = assay: Induction of cell cycle arrest in human Huh-7 cells assessed as accumulation at G2 phase at 40 nM treated for 24 hrs by PI staining based flow cytometry (reference value: 15.90 %); assay type: functional
Huh-7 [13] = assay: Induction of apoptosis in human Huh-7 cells assessed as cell shrinkage incubated for 24 hrs by Giemsa staining based microscopy; assay type: functional; conditions: dose 12-60 nM, DDE = dose-dependent effect
SK-HEP1 [14] = assay: Induction of cell cycle arrest in human SK-Hep1 cells assessed as accumulation at G2 phase at 10 nM treated for 24 hrs by PI staining based flow cytometry (reference value: 16.55 %); assay type: functional
Huh-7 [15] = assay: Induction of ROS generation in human Huh-7 cells incubated for 24 hrs by DCFH2-DA probe based flow cytometry; assay type: functional, cell-based; conditions: dose 10-80 nM, DDE = dose-dependent effect
HepG2 = assay: Antiproliferative activity against human HepG2 cells treated for 72 hrs by MTT assay; assay type: functional, cell-based; conditions: HepG2, 72 h
Huh-7 [16] = assay: Antiproliferative activity against human Huh-7 cells assessed as inhibition of cell viability by MTT assay; assay type: functional, cell-based; conditions: time 24-72 hrs, TDE = time-dependent effect
Huh-7 [17] = assay: Induction of apoptosis in human Huh-7 cells assessed as change in cell membrane permeability by measuring blue fluorescence incubated for 24 hrs by Hoechst staining based microscopy; assay type: functional; conditions: dose 12-60 nM, DDE = dose-dependent effect
SK-HEP1 [18] = assay: Induction of apoptosis in human SK-Hep1 cells assessed as viable cells at 80 nM incubated for 24 hrs by annexin V-FITC/PI staining flow cytometry (reference value: 97.8 %); assay type: functional; conditions: read-out: Activity
Huh-7 [19] = assay: Antiproliferative activity against human Huh-7 cells treated for 72 hrs by MTT assay; assay type: functional, cell-based; conditions: Huh-7, 72 h
Huh-7 [20] = assay: Induction of cell cycle arrest in human Huh-7 cells assessed as accumulation at G1 phase at 80 nM treated for 24 hrs by PI staining based flow cytometry (reference value: 60.77 %); assay type: functional
SK-HEP1 [21] = assay: Induction of cell cycle arrest in human SK-Hep1 cells assessed as accumulation at G1 phase at 80 nM treated for 24 hrs by PI staining based flow cytometry (reference value: 58.47 %); assay type: functional
[22] = Induction of apoptosis in rat HSC-T6 cells assessed as necrotic cells at 80 nM pretreated with TGFbeta-1 for 1 day followed by compound addition and measured after 24 hrs by flow cytometry (reference value: 0.56 %); assay type: functional
SK-HEP1 [23] = assay: Induction of cell cycle arrest in human SK-Hep1 cells assessed as accumulation at S phase at 10 nM treated for 24 hrs by PI staining based flow cytometry (reference value: 24.98 %); assay type: functional
SK-HEP1 [24] = assay: Induction of apoptosis in human SK-Hep1 cells assessed as late apoptotic cells at 40 nM incubated for 24 hrs by annexin V-FITC/PI staining flow cytometry (reference value: 1.13 %); assay type: functional

SMILES	Activity (Huh-7 [1])	Activity (SK-HEP1 [2])	Activity (Huh-7 [3])	inhibition [4]	Activity (SK-HEP1 [5])	Activity (HSC-T6)	viability at 0.08 µM (Huh-7 [6])	Activity (SK-HEP1 [7])	Activity [8]	inhibition (Huh-7 [9])	Activity (SK-HEP1 [10])	IC50 (SMMC-7721)	IC50 at 72 h [11]	Activity (Huh-7 [12])	Activity (Huh-7 [13])	Activity (SK-HEP1 [14])	Activity (Huh-7 [15])	IC50 (HepG2)	Activity (Huh-7 [16])	Activity (Huh-7 [17])	other results
CC(=O)Oc1ccc2[nH]c3c(c2c1)CCN1C(=O)c2cc(F)cc(F)c2N(c2cccc(F)c2)C31 (centres undefined)	8.43%	0.58%	Dde	94%	Dde	Active	59.7%	2.44%	0.52%	Dde	Dde	0.08 µM	0.95 µM	50.27%	Dde	18.08%	Dde	0.18 µM	Tde	Dde	viability at 0.08 µM (SK-HEP1 [18]): 84%; IC50 (Huh-7 [19]): 0.03 µM; Activity (Huh-7 [20]): 17.18%; Activity (SK-HEP1 [21]): 19.76%; Activity [22]: 4.44%; Activity (SK-HEP1 [23]): 19.4%; Activity (SK-HEP1 [24]): 13.4%
O=C1c2cc(F)cc(F)c2N(c2cccc(F)c2)C2c3[nH]c4ccc(O)cc4c3CCN12 (centres undefined)	10.85%	2.39%	Dde	92.5%	Dde	Active	58.4%	2.92%	0.084%	Dde	Dde	0.09 µM	0.78 µM	63.75%	Dde	26.65%	Dde	0.09 µM	Tde	Dde	viability at 0.08 µM (SK-HEP1 [18]): 73.4%; IC50 (Huh-7 [19]): 0.04 µM; Activity (Huh-7 [20]): 10.64%; Activity (SK-HEP1 [21]): 11.58%; Activity [22]: 3.62%; Activity (SK-HEP1 [23]): 18.42%; Activity (SK-HEP1 [24]): 13.6%

Source: ChEMBL document CHEMBL5154935, “Design, Synthesis, and Biological Evaluation of Novel Evodiamine Derivatives as Potential Antihepatocellular Carcinoma Agents” (J Med Chem, 2022)
